Laboratory results from ChEMBL document CHEMBL1201862, “PubChem BioAssay data set” (2004).
Blank lines part the entries; values can stand above or below the molecule they belong to. The source made the active and inactive calls.

Assays:
[1] = molecular target: Potassium voltage-gated channel subfamily KQT member 2 (Rattus norvegicus, UniProt O88943); assay: KCNQ2 channel activators, analog series, SAR follow-up, automated patch clamp, KCNQ2-CHO cells (AID 493113); format: functional
[2] = molecular target: T1, Peroxisome proliferator-activated receptor gamma (Homo sapiens, UniProt P37231); assay: PPARg ligand-binding domain binders, dose response, PPARg partial agonist project, biochemical, TR-FRET, LanthaScreen (AID 504446)
T1 sequence (P37231 whole entry): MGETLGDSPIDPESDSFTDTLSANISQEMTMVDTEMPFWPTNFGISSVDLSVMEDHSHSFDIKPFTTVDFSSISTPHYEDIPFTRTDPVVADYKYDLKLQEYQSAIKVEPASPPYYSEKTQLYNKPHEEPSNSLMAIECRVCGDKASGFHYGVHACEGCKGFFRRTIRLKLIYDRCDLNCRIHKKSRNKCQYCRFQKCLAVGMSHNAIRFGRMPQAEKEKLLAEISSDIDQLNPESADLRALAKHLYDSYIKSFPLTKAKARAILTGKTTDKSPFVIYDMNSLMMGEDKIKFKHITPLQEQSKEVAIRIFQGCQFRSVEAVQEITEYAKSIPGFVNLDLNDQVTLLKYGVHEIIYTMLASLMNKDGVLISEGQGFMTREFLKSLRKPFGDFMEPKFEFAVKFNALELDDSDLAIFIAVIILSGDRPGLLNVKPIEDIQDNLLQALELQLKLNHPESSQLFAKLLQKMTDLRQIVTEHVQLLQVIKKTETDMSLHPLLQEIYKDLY

[3] = molecular target: T1, Peroxisome proliferator-activated receptor gamma; assay: PPARg partial agonists, dose response, cell-based, luminescence, assay provider (AID 504447); format: functional
[4] = molecular target: T1, Peroxisome proliferator-activated receptor gamma; assay: PPARg ligand-binding domain binders, dose response, PPARg partial agonist project, biochemical, fluorescence polarization, PolarScreen (AID 504453)
[5] = molecular target: T2, Delta-type opioid receptor (Homo sapiens, UniProt P41143); assay: DOR agonists, SAR follow-up, image-based (AID 2370); format: functional
[6] = molecular target: T3, Mu-type opioid receptor (Homo sapiens, UniProt P35372); assay: MOR agonists by imaging, SAR follow-up, image-based (AID 2352); format: functional
[7] = molecular target: T3, Mu-type opioid receptor; assay: MOR antagonists, SAR follow-up, image-based (AID 2420); format: functional;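 note: compounds added before stimulation of receptor with agonist DAMGO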
[8] = molecular target: T4, Kappa-type opioid receptor (Homo sapiens, UniProt P41145); assay: KOR antagonists by imaging, SAR follow-up, image-based (AID 2348); format: functional
[9] = molecular target: T2, Delta-type opioid receptor; assay: DOR antagonists, SAR follow-up, image-based (AID 2357); format: functional
[10] = molecular target: T4, Kappa-type opioid receptor; assay: SAR analysis of small molecule agonists of the kappa opioid receptor via a luminescent beta-arrestin assay. [Related pubchem assays (depositor defined):AID1777, AID1786, AID1966, AID2133, AID2136, AID2348, AID2352, AID2357, AID2359, AID2370, AID2420, AID2478, AID2491, AID2492, AID2493, AID2497, AID2498, AID2500, AID449737, AID488822, AID488842]; format: functional
[11] = molecular target: Lysine-specific demethylase 4C (Homo sapiens, UniProt Q9H3R0); assay: GASC-1 (JMJD2C) histone demethylase inhibitors, dose response, biochemical, DELFIA europium, cherry-picked samples (AID 488835); format: functional
[12] = molecular target: Intestinal-type alkaline phosphatase (Homo sapiens, UniProt P09923); assay: inhibition of human intestinal alkaline phosphatase – biochemical, dose response (AID 488876); format: functional
[13] = molecular target: Large T antigen (Simian virus 40, UniProt P03070); format: functional, Betapolyomavirus macacae;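 note: Confirmatory-stage PubChem screen for compounds that inhibit SV40 T antigen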
[14] = molecular target: Intestinal-type alkaline phosphatase (Mus musculus, UniProt P24822); assay: PubChem AID 488785; format: functional
[15] = molecular target: Alkaline phosphatase, tissue-nonspecific isozyme (Homo sapiens, UniProt P05186); assay: TNAP enzyme inhibition by screening hits, dose response, selectivity assay for mouse IAP inhibitor project, biochemical, human TNAP, uHTS hits (AID 488906); format: functional
[16] = molecular target: T5, Probable nicotinate-nucleotide adenylyltransferase (Staphylococcus aureus (strain N315), UniProt P65502); format: functional, Staphylococcus aureus subsp. aureus N315;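 for IC50 Mean: confirmatory dose-response retesting of NadD inhibitor hits first found in an ultra-high-throughput screen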
[17] = molecular target: T5, Probable nicotinate-nucleotide adenylyltransferase; format: functional, Staphylococcus aureus subsp. aureus N315; details: read-out: IC50_Mean
[18] = molecular target: T6, Runt-related transcription factor 1/Core-binding factor subunit beta (Homo sapiens, UniProt Q01196+Q13951); assay: inhibitors of RUNX1 Runt–CBFb-SMMHC binding, biochemical, TR-FRET (AID 1438); format: protein assay
[19] = molecular target: T6, Runt-related transcription factor 1/Core-binding factor subunit beta; assay: inhibitors of RUNX1 Runt–CBFb-SMMHC binding, primary screen, biochemical, FRET, Cerulean-Runt, Venus-CBFb-SMMHC, uHTS (AID 1434); format: protein assay;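 note: partner is the CBFb-SMMHC leukemia fusion protein rather than wild-type CBFb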
[20] = molecular target: Induced myeloid leukemia cell differentiation protein Mcl-1 (Homo sapiens, UniProt Q07820); format: functional
[21] = molecular target: T7, Low molecular weight phosphotyrosine protein phosphatase (Homo sapiens, UniProt P24666); format: functional; details: read-out: IC50_Mean;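 note: Dose-response confirmation assay measuring inhibition of LMPTP enzyme activity by fluorescence intensity read-out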
T7 sequence (P24666 whole entry): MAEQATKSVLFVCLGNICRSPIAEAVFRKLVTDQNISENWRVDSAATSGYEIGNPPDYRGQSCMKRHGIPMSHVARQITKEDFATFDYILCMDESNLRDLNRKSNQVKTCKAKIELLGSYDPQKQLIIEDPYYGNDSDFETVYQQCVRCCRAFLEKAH

[22] = molecular target: T8, Corticotropin-releasing factor receptor 2/Corticotropin-releasing factor-binding protein (Homo sapiens, UniProt P24387+Q13324); assay: activators of CRF receptor 2 with binding protein – uHTS hits, confirmation (AID 602473); format: functional; details: read-out: EC50_Mean
T8 sequence (Q13324 whole entry): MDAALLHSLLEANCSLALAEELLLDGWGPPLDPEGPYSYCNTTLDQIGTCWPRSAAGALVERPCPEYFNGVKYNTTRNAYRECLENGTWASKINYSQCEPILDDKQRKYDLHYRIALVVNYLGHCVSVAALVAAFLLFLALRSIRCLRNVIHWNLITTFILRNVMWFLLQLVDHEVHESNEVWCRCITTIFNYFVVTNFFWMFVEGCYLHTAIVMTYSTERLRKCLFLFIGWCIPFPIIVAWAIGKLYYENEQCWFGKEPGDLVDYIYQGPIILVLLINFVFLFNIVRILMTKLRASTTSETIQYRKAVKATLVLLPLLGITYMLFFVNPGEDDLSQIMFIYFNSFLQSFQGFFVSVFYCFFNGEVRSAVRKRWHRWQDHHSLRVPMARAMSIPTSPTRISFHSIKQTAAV
T8 sequence (P24387 whole entry): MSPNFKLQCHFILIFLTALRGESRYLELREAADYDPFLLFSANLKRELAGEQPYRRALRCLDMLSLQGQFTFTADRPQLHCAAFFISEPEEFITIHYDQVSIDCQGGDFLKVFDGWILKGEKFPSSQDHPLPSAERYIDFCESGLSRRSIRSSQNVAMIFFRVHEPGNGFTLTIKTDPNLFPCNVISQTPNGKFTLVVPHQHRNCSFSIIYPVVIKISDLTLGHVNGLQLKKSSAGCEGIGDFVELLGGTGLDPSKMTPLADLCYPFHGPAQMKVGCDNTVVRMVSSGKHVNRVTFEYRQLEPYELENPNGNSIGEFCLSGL

[23] = molecular target: T9, Tyrosine-protein phosphatase non-receptor type 7 (Homo sapiens, UniProt P35236); format: functional
T9 sequence (P35236 whole entry): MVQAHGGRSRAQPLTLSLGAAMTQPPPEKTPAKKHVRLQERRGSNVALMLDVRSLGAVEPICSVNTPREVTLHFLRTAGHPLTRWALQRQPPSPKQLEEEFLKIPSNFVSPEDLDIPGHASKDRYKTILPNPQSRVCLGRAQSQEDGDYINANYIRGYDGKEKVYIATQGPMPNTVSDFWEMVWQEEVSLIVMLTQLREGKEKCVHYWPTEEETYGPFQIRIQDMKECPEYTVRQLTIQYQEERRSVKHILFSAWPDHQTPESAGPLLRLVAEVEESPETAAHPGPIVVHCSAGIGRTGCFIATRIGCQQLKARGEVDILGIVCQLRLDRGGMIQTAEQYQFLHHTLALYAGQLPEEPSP

[24] = molecular target: T10, Tyrosine-protein phosphatase non-receptor type 22 (Homo sapiens, UniProt Q9Y2R2); format: functional
T10 sequence (Q9Y2R2 whole entry): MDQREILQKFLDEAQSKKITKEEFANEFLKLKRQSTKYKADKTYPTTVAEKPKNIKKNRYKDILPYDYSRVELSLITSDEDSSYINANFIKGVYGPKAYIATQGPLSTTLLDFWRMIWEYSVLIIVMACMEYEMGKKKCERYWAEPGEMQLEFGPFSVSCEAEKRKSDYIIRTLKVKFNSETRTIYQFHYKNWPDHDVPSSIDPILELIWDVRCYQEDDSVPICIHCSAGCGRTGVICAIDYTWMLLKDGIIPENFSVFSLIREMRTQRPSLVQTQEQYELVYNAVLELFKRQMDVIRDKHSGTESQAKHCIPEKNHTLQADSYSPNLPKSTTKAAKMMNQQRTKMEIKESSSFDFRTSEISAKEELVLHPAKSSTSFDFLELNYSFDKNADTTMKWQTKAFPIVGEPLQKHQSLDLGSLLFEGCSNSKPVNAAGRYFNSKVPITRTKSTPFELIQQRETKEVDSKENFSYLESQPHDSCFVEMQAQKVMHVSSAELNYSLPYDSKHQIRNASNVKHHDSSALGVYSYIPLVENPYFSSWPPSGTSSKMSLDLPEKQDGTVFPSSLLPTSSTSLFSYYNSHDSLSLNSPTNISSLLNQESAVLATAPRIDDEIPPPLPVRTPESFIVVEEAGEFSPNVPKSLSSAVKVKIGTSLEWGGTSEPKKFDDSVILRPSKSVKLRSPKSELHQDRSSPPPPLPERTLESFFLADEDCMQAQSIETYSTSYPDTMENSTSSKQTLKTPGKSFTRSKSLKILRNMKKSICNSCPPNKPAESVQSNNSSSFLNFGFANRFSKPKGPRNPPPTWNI

[25] = molecular target: T10, Tyrosine-protein phosphatase non-receptor type 22; format: functional; remark: listed apart in the source
[26] = molecular target: T11, Cannabinoid receptor 2 (Homo sapiens, UniProt P34972); assay: SAR analysis of agonists of the Cannabinoid Receptor 2 using an Image-Based Assay - Set 3. [Related pubchem assays (depositor defined):AID2013, AID2026]; format: functional
[27] = molecular target: T12, G-protein coupled receptor 35 (Homo sapiens, UniProt Q9HC97); assay: SAR analysis of Antagonists of the GPR35 Receptor using an Image-Based Assay - Set 6. [Related pubchem assays (depositor defined):AID2013, AID2026]; format: functional
[28] = molecular target: T13, Cannabinoid receptor 1 (Homo sapiens, UniProt P21554); assay: SAR analysis of antagonists of the Cannabinoid Receptor 1 using an Image-Based Assay - Set 4. [Related pubchem assays (depositor defined):AID2013, AID2026]; format: functional
[29] = molecular target: T12, G-protein coupled receptor 35; assay: SAR analysis of Agonists of the GPR35 Receptor using an Image-Based Assay - Set 4. [Related pubchem assays (depositor defined):AID2013, AID2026]; format: functional
[30] = molecular target: T13, Cannabinoid receptor 1; assay: SAR analysis of agonists of the Cannabinoid Receptor 1 using an Image-Based Assay - Set 4. [Related pubchem assays (depositor defined):AID2013, AID2026]; format: functional
[31] = molecular target: G-protein coupled receptor 55 (Homo sapiens, UniProt Q9Y2T6); assay: SAR Analysis of Selective Antagonists of GPR55 using an Image-Based Assay - Set 4. [Related pubchem assays (depositor defined):AID2013, AID2026]; format: functional;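 note: antagonism of response to 5 µM lysophosphatidylinositol agonist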
[32] = molecular target: T11, Cannabinoid receptor 2; assay: SAR analysis of antagonists of the Cannabinoid Receptor 2 using an Image-Based Assay - Set 3. [Related pubchem assays (depositor defined):AID2013, AID2026]; format: functional

T2 sequence (P41143 whole entry): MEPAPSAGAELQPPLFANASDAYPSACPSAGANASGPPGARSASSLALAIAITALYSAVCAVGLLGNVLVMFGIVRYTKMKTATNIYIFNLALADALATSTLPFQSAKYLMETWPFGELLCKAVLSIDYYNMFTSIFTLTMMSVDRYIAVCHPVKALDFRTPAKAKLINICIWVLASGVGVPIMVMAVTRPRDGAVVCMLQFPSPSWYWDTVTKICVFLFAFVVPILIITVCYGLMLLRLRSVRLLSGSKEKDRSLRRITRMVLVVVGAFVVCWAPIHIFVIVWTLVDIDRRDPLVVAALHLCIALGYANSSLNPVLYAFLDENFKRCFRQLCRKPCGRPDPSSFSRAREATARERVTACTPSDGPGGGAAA
T12 sequence (Q9HC97 whole entry): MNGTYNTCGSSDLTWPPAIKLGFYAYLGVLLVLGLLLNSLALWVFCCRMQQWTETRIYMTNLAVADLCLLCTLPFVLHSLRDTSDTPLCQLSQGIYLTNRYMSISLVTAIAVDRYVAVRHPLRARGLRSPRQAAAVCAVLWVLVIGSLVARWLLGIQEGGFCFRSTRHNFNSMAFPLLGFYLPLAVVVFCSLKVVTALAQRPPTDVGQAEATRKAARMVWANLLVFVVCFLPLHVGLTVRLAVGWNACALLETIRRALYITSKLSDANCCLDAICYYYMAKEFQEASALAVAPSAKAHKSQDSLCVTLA
T11 sequence (P34972 whole entry): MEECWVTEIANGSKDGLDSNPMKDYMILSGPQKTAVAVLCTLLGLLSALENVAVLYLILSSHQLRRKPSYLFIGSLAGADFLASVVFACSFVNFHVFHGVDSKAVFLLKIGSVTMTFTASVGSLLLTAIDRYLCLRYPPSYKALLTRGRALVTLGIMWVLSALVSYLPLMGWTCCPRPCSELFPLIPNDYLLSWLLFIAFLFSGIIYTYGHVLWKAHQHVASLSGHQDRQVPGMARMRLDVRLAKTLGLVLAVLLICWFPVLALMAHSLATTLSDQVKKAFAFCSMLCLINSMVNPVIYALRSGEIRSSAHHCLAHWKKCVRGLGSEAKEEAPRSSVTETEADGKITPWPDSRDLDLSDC
T3 sequence (P35372 whole entry): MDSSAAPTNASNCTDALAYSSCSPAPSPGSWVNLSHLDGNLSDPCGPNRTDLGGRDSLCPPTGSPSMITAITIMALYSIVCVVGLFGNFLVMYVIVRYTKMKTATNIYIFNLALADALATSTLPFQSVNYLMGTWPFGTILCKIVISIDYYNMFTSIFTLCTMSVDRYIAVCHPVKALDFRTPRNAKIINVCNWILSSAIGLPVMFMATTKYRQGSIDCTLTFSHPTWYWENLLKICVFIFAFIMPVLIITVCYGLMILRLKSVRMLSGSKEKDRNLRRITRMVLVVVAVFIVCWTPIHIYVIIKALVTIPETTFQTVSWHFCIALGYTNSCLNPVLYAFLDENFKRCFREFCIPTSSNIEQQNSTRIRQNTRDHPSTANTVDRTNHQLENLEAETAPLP
T4 sequence (P41145 whole entry): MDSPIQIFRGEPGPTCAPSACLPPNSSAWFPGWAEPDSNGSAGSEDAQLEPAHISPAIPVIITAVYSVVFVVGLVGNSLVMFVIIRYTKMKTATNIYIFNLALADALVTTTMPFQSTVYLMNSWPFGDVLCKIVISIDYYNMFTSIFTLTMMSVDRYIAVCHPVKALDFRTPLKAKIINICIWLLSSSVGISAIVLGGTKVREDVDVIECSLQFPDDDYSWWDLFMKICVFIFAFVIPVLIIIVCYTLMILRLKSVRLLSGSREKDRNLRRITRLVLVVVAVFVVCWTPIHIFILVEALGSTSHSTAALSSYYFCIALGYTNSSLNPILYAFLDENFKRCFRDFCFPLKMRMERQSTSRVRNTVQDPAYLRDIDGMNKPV
T13 sequence (P21554 whole entry): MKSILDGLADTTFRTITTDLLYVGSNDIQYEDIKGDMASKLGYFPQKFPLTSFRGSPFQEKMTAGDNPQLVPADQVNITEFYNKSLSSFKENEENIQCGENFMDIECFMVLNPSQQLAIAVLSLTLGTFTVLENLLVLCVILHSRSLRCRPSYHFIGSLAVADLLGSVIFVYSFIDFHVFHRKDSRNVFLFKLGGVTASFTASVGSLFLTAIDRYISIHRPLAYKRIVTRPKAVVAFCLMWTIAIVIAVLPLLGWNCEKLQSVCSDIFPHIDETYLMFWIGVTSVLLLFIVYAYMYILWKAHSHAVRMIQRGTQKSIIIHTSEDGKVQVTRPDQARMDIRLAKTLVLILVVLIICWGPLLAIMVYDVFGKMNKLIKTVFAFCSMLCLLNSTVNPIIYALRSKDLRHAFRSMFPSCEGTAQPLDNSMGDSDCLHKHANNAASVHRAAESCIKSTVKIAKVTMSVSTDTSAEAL
T6 sequence (Q01196 whole entry, the tested form may be a part): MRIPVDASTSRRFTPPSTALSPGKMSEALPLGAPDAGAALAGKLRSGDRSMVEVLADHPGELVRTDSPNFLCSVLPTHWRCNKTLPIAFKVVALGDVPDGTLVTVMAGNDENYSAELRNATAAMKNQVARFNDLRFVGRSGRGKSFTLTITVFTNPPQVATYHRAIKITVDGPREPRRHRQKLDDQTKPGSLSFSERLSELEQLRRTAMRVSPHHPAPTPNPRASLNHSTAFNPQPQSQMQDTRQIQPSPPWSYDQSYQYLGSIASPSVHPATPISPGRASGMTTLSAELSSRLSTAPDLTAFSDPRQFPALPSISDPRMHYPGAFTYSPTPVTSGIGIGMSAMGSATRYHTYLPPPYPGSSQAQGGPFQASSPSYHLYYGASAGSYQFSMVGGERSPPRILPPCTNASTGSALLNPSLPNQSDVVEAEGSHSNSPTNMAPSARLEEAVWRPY
T6 sequence (Q13951 whole entry, the tested form may be a part): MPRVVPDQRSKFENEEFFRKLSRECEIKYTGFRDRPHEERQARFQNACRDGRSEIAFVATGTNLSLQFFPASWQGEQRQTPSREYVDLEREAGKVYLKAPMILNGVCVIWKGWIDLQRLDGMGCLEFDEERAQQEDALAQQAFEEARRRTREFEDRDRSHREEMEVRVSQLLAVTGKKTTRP
Chain of Lysine-specific demethylase 4C (Q9H3R0 whole entry): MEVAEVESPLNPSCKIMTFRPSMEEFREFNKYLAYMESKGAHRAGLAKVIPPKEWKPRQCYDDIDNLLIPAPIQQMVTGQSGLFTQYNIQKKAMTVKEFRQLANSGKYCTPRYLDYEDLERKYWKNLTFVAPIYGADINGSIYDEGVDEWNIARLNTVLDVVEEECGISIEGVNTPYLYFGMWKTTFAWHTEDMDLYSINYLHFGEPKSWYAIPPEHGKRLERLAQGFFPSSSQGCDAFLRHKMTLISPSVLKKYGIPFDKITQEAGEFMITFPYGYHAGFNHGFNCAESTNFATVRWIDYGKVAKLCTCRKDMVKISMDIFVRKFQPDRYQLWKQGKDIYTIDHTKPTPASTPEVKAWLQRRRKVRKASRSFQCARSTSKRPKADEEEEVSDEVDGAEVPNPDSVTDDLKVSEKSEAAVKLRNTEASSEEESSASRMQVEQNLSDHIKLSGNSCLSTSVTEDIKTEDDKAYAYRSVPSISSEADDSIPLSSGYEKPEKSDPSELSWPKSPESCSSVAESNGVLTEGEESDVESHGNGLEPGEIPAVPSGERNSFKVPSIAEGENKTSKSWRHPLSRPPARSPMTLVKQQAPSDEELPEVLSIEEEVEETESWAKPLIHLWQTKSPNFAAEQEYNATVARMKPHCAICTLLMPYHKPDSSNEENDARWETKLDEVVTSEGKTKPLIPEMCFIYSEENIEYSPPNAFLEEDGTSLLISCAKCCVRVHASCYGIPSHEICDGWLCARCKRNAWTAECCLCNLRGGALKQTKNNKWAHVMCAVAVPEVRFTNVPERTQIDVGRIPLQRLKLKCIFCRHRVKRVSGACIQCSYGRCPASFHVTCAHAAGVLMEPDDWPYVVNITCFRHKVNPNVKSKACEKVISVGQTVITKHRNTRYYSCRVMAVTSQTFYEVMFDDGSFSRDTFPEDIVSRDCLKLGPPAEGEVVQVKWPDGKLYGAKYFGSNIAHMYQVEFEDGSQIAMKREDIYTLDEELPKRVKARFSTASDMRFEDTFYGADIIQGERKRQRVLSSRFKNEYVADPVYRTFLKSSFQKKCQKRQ
Chain of Intestinal-type alkaline phosphatase (Mus musculus, UniProt P24822) (P24822 whole entry): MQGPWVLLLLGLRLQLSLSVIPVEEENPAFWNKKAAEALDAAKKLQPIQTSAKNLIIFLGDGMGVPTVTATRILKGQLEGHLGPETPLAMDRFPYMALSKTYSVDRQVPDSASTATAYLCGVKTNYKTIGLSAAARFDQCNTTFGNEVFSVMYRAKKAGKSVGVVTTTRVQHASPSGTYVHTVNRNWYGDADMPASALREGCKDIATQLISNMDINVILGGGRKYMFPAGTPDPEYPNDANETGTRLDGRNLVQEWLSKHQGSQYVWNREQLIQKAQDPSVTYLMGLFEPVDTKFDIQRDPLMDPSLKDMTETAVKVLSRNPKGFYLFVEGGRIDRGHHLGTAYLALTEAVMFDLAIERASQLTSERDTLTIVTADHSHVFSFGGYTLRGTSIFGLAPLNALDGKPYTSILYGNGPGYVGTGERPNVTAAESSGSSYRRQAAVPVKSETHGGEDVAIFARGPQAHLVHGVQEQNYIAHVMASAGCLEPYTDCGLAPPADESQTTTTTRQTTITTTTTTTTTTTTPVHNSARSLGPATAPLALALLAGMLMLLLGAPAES
Chain of G-protein coupled receptor 55 (Q9Y2T6 whole entry): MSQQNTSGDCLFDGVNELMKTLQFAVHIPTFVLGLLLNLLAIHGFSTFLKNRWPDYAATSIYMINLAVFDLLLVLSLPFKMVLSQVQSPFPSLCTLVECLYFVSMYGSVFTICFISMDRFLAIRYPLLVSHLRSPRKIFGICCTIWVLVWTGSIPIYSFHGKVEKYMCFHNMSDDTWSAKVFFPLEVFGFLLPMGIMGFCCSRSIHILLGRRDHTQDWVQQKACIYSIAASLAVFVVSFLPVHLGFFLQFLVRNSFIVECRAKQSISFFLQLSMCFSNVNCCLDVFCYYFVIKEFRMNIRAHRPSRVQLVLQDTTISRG

SMILES: Nc1cccc(NC(=O)C2CC3CCC2C3)n1 (configuration not stated)
EC50 [1]: 1.81 µM (active)

SMILES: O=S(=O)(c1ccc(NC(=S)N/N=C/c2ccc(O)c(O)c2)cc1)N1CCOCC1
IC50 [12]: < 0.195 µM (active) | IC50 [13]: 38.4 µM (active) | IC50 [14]: 2.84 µM (active) | IC50 [15]: 15.1 µM (active)

SMILES: Oc1nc(C(Cl)Cl)nc2sc3c(c12)CCN(Cc1ccccc1)C3
IC50 [16]: 9.04 µM (active) | IC50 [17]: 18.7 µM (active) | IC50 [18]: 13.4 µM (active) | IC50 [19]: 2.89 µM (active) | IC50 [20]: 3.75 µM (not active) | IC50 [21]: 7.87 µM (active) | EC50 [22]: > 53 µM (inactive)

The next lines start with the values.

IC50 [2]: 1.2 µM (active) | EC50 [3]: 5 µM (active) | IC50 [4]: 5 µM (active)
SMILES: COc1ccc2nc(N3C(=O)C(O)=C(C(=O)c4ccco4)C3c3ccc(C)o3)sc2c1 (configuration not stated)

EC50 [5]: > 32 µM (inactive) | EC50 [6]: > 32 µM (inactive) | IC50 [7]: > 32 µM (inactive) | IC50 [8]: > 32 µM (inactive) | IC50 [9]: > 32 µM (inactive) | EC50 [10]: > 10 µM (inactive)
SMILES: COc1ccc(CN(Cc2ccccn2)C(=O)CN2C(=O)COc3ccccc32)cc1

AC50 [11]: 10.6 µM (active)
SMILES: Cc1ccc(-c2csc(NC(=O)CSc3nc(C)cc(O)n3)n2)cc1

IC50 [23]: > 79.4 µM (inactive) | IC50 [24]: > 79.4 µM (inactive) | IC50 [25]: > 79.4 µM (inactive)
SMILES: CCCC(=O)NCCc1cc2ccc(C)c(C)c2nc1O

EC50 [26]: 3.61 µM (active) | IC50 [27]: > 32 µM (inactive) | IC50 [28]: > 32 µM (inactive) | EC50 [29]: > 32 µM (inactive) | EC50 [30]: > 32 µM (inactive) | IC50 [31]: > 32 µM (inactive) | IC50 [32]: > 32 µM (inactive)
SMILES: N=c1c(C(=O)NCCc2ccccc2)cc2c(=O)n3ccccc3nc2n1C1CCCC1
